Source: patent US20220000117A1, “METHOD FOR CONTROLLING DISEASES IN SMALL GRAIN CEREALS, SEED OF SMALL GRAIN CEREALS, AND METHOD FOR SUPPRESSING LODGING DAMAGE IN SMALL GRAIN CEREALS” (KUMIAI CHEMICAL INDUSTRY CO., LTD., priority 2019, published 2022)

Assays:
powdery mildew [1] = test: Test Example 2: control test of wheat powdery mildew, pot in greenhouse, inoculated, wheat variety Norin No. 61; type: in vivo, Blumeria graminis; settings: for Degree of Disease Occurrence: inoculated day 49, first leaf, 59 days after seeding
Protocol: (§1) Degree of Disease Occurrence=Σ(Index×Number of Leaves of Index)/(4×Number of Investigated Leaves)×100 (1)
Seed having a mass of 1 kg of wheat (variety: Norin No. 61) was mixed into 100 ml of suspension water containing 5 g or 0.5 g of dichlobentiazox or isotianil (commercial Routine flowable was used, “Routine” is a registered trademark) and air-dried, and then, 15 seeds were sown in a plastic pot of 9 cm×9 cm containing horticultural soil and managed in a greenhouse. The number of emerged seeds was investigated 10 days after seeding, and an emergence rate was calculated (Examples 2 to 5). On day 49 after seeding, conidiospores of powdery mildew were sifted over leaves of wheat seedlings and inoculated onto the leaves, a lesion area ratio of powdery mildew in a first leaf was investigated 59 days after seeding according to the criteria in Table 1, and the degree of disease occurrence was calculated by the above calculation formula (1).

[2] = system: wheat (variety: Norin No. 61); test: Test Example 3: emergence rate of wheat seed; type: in vivo
Protocol: Seed having a mass of 1 kg of wheat (variety: Norin No. 61) was mixed into 100 ml of suspension water containing 5 g or 0.5 g of dichlobentiazox or isotianil and air-dried, and then, 12 seeds were sown in a plastic cup having a diameter of 6 cm containing river sand and managed in a greenhouse. The number of emerged seeds was investigated nine days after seeding, and an emergence rate was calculated (Examples 6 to 9). In Comparative Examples 6 to 9, 20 ml of suspension water of an active ingredient, which had been adjusted to have a concentration shown in Table 4, was sprayed in a frame of 45 cm×45 cm in which a pot of wheat seedlings was placed (corresponding to 1000 L/ha) 14 days after seeding. On day 14 after seeding, conidiospores of powdery mildew were sifted over leaves of wheat seedlings and inoculated onto the leaves (after the sprayed liquid was dried in the case of Comparative Examples), a lesion area ratio of powdery mildew in a first leaf was investigated 19 days after seeding according to the criteria in Table 1, and the degree of disease occurrence was calculated by the above calculation formula (1).

powdery mildew [3] = test: Test Example 5: control test of wheat powdery mildew, field, wheat variety Haruyutaka; type: in vivo, Blumeria graminis; settings: for Degree of Disease Occurrence / Disease Leaf Rate (%): leaves just below flag leaves, 85 days after seeding
Protocol: as §1
Seed of wheat (variety: Haruyutaka) sterilized in advance with commercial Benlate T wettable powder 20 (“Benlate” is a registered trademark) was used. In Examples 12, 13, and 14, seed having a mass of 1 kg was mixed into 50 ml of suspension water containing 2.5 g or 1.25 g of dichlobentiazox or 50 ml of suspension water containing 2.5 g of isotianil, air-dried, and then, stripe-sown in a field with a furrow width of 30 cm and a ratio of 100 kg/ha (300 seeds/m^2). Moreover, in Comparative Example 14, seed having a mass of 1 kg was mixed into 50 ml of suspension water containing 2.5 g of tiadinil (commercial V-GET flowable was used, “V-GET” is a registered trademark), air-dried, and then, stripe-sown in a field with a furrow width of 30 cm and a ratio of 100 kg/ha (300 seeds/m^2). The presence or absence of disease occurrence and a lesion area ratio of powdery mildew in leaves just below hag leaves (next leaves) of 30 stems were investigated 85 days after seeding by according to the criteria in Table 1, and a disease leaf rate and the degree of disease occurrence were calculated by the above calculation formula(1).

[4] = system: wheat (variety: Haruyutaka); test: Test Example 6: evaluation test of shortening of wheat (culm length, seed yield), field; type: in vivo
[5] = Seed Treatment 1.25 g/Seed 1 kg (printed: 250 g/ha)
[6] = Seed Treatment 2.5 g/Seed 1 kg (250 g/ha)

## O=S1(=O)N=C(OCc2snc(Cl)c2Cl)c2ccccc21 [Compound (1), Dichlobentiazox]
Powdery mildew [1]; Seed Treatment 0.5 g/Seed 1 kg (50 g/ha)
  Degree of Disease Occurrence: 10.7
Powdery mildew [1]; Seed Treatment 5 g/Seed 1 kg (500 g/ha)
  Degree of Disease Occurrence: 0.0
Powdery mildew [1]; seed treatment
  disease occurrence under artificial inoculation of powdery mildew: the disease occurrence was suppressed
[2]; Foliage Treatment group, spray 50 ppm (50 g/ha) 14 days after seeding, emergence counted nine days after seeding
  Emergence Rate (%): 100%
[2]; Foliage Treatment group, spray 500 ppm (500 g/ha) 14 days after seeding, emergence counted nine days after seeding
  Emergence Rate (%): 97%
[2]; Seed Treatment 0.5 g/Seed 1 kg (50 g/ha), nine days after seeding
  Emergence Rate (%): 97%
[2]; Seed Treatment 5 g/Seed 1 kg (500 g/ha), nine days after seeding
  Emergence Rate (%): 100%
Powdery mildew [3]; [5]
  Degree of Disease Occurrence: 0.8
  Disease Leaf Rate (%): 4.4%
Powdery mildew [3]; [6]
  Degree of Disease Occurrence: 0.4
  Disease Leaf Rate (%): 2.2%
Powdery mildew [3]; seed treatment
  disease occurrence of powdery mildew, seed treatment compared with seed treatment with tiadinil: suppresses the disease occurrence of powdery mildew lower
[4]; Dichlobentiazox Seed Treatment 5 g/Seed 1 kg plus Propiconazole foliage spray 120 g/ha four times, harvested 106 days after seeding
  Culm Length (cm): 80.1 cm
[4]; Dichlobentiazox Seed Treatment 5 g/Seed 1 kg plus Propiconazole foliage spray 120 g/ha four times, wheat in 3 m2, 106 days after seeding
  Seed Yield: 1015 g
[4]; seed treatment
  culm length in harvesting time, compared with no seed treatment: slightly shorter
  yield amount of wheat grains, compared with no seed treatment: slightly higher
